Laboratory results taken from US20090270413A1, “DI-T-BUTYLPHENYL PIPERAZINES AS CALCIUM CHANNEL BLOCKERS” (priority 2008, published 2009).

What was measured:
Type in all cases: cell-based
[1] = target: T1, Cav3.1 (T-type channel alpha-1G) (Homo sapiens, UniProt O43497); test: T-type calcium channel voltage-clamp assay, Cav3.1; conditions: read-out: Cav 3.1 IC50
T1 construct: expressed in transfected cells; host or cells: HEK 293
Description: (§1) The T-type calcium channel blocking activity of the compounds of this invention may be readily determined using the methodology well known in the art described by Xia, et al., Assay and Drug Development Tech., 1 (5), 637-645 (2003).
(§2) In a typical experiment ion channel function from HEK 293 cells expressing the T-type channel alpha-1G, H, or I (CaV 3.1, 3.2, 3.3) is recorded to determine the activity of compounds in blocking the calcium current mediated by the T-type channel alpha-1G, H, or I (CaV 3.1, 3.2, 3.3). In this T-type calcium (Ca^2+) antagonist voltage-clamp assay calcium currents are elicited from the resting state of the human alpha-1G, H, or I (CaV 3.1, 3.2, 3.3) calcium channel as follows. Sequence information for T-type (Low-voltage activated) calcium channels are fully disclosed in e.g., U.S. Pat. No. 5,618,720, U.S. Pat. No. 5,686,241, U.S. Pat. No. 5,710,250,U.S. Pat. No. 5,726,035, U.S. Pat. No. 5,792,846, U.S. Pat. No. 5,846,757, U.S. Pat. No. 5,851,824, U.S. Pat. No. 5,874,236, U.S. Pat. No. 5,876,958, U.S. Pat. No. 6,013,474, U.S. Pat. No. 6,057,114, U.S. Pat. No. 6,096,514, WO 99/28342, and J. Neuroscience, 19 (6):1912-1921 (1999). Cells expressing the t-type channels were grown in H3D5 growth media which is comprised DMEM, 6% bovine calf serum (HYCLONE), 30 micromolar Verapamil, 200 microgram/ml Hygromycin B, 1× Penicillin/Streptomycin. Glass pipettes are pulled to a tip diameter of 1-2 micrometer on a pipette puller. The pipettes are filled with the intracellular solution and a chloridized silver wire is inserted along its length, which is then connected to the headstage of the voltage-clamp amplifier. Trypsinization buffer was 0.05% Trypsin, 0.53 mM EDTA. The extracellular recording solution consists of (mM): 130 mM NaCl, 4 mM KCl, 1 mM MgCl2, 2 mM CaCl2, 10 mM HEPES, 30 Glucose, pH 7.4. The internal solution consists of (mM): 135 mM CsMeSO4, 1 MgCl2, 10 CsCl, 5 EGTA, 10 HEPES, pH 7.4, or 135 mM CsCl, 2 MgCl2, 3 MgATP, 2 Na2ATP, 1 Na2GTP, 5 EGTA, 10 HEPES, pH 7.4. Upon insertion of the pipette tip into the bath, the series resistance is noted (acceptable range is between 1-4 megaohm). The junction potential between the pipette and bath solutions is zeroed on the amplifier. The cell is then patched, the patch broken, and, after compensation for series resistance (>=80%), the voltage protocol is applied while recording the whole cell Ca2+ current response. Voltage protocols: (1) −80 mV holding potential every 20 seconds pulse to −20 mV for 40 msec duration; the effectiveness of the drug in inhibiting the current mediated by the channel is measured directly from measuring the reduction in peak current amplitude initiated by the voltage shift from −80 mV to −20 mV; (2). −100 mV holding potential every 15 seconds pulse to −20 mV for 40 msec duration; the effectiveness of the drug in inhibiting the current mediated by the channel is measured directly from measuring the reduction in peak current amplitude initiated by the shift in potential from −100 mV to […]. The difference in block at the two holding potentials was used to determine the effect of drug at differing levels of inactivation induced by the level of resting state potential of the cells. After obtaining control baseline calcium currents, extracellular solutions containing increasing concentrations of a test compound are washed on. Once steady state inhibition at a given compound concentration is reached, a higher concentration of compound is applied. % inhibition of the peak inward control Ca2+ current during the depolarizing step to −20 mV is plotted as a function of compound concentration.

Human Cav2.2 channels = target: T2, Human Cav2.2 channels (Homo sapiens, UniProt Q00975); test: Block of Cav2.2 (N-type) channels expressed in HEK293 cells; conditions: for inhibition at 10 µM / inhibition at 30 µM: HEK293; for inhibition at 10 µM: read-out: Cav 2.2 % Inh @ 10 μM; for inhibition at 30 µM: read-out: Cav 2.2 % Inh @ 30 μM; for IC50: read-out: Cav 2.2 IC50
T2 construct: expressed in transfected cells
From the text: Human Cav2.2 channels were stably expressed in HEK293 cells along with alpha2-delta and beta subunits of voltage-gated calcium channels. An inwardly rectifying potassium channel (Kir2.3) was also expressed in these cells to allow more precise control of the cell membrane potential by extracellular potassium concentration. At low bath potassium concentration, the membrane potential is relatively negative, and is depolarized as the bath potassium concentration is raised. In this way, the bath potassium concentration can be used to regulate the voltage-dependent conformations of the channels. Compounds are incubated with cells in the presence of low (4 mM) potassium or elevated (12, 25 or 30 mM) potassium to determine the affinity for compound block of resting (closed) channels at 4 mM potassium or affinity for block of open and inactivated channels at 12, 25 or 30 mM potassium. After the incubation period, Cav2.2 channel opening is triggered by addition of higher concentration of potassium (70 mM final concentration) to further depolarize the cell. The degree of state-dependent block can be estimated from the inhibitory potency of compounds after incubation in different potassium concentrations.
Calcium influx through Cav2.2 channels is determined using a calcium sensitive fluorescent dye in combination with a fluorescent plate reader. Fluorescent changes were measured with either a VIPR (Aurora Instruments) or FLIPR (Molecular Devices) plate reader.
Protocol • 1. Seed cells in Poly-D-Lysine Coated 96 or 384-well plate and keep in a 37° C.-10% CO2 incubator overnight • 2. Remove media, wash cells with 0.2 mL (96-well plate) or 0.05 mL (384-well plate) Dulbecco's Phosphate Buffered Saline (D-PBS) with calcium & magnesium (Invitrogen; 14040) • 3. Add 0.1 mL (96-well plate) or 0.05 mL (384-well plate) of 4 μM fluor-4 (Molecular Probes; F-14202) and 0.02% Pluronic acid (Molecular Probes; P-3000) prepared in D-PBS with calcium & magnesium (Invitrogen; 14040) supplemented with 10 mM Glucose & 10 mM Hepes/NaOH; pH 7.4 • 4. Incubate in the dark at 25° C. for 60-70 min • 5. Remove dye, wash cells with 0.1 mL (96-well plate) or 0.06 mL (384-well plate) of 4, 12, 25, or 30 mM Potassium Pre-polarization Buffer (PPB) • 6. Add 0.1 mL (96-well plate) or 0.03 mL (384-well plate) of 4, 12, 25, 30 mM PPB with or without test compound • 7. Incubate in the dark at 25° C. for 30 min • 8. Read cell plate on VIPR instrument, Excitation=480 nm, Emission=535 nm • 9. With VIPR continuously reading, add 0.1 mL (96-well plate) or 0.03 mL (384-well plate) of Depolarization Buffer (DB), which is 2× the final assay concentration, to the cell plate.
Block of N-type calcium channels is evaluated utilizing the IonWorks HT 384 well automated patch clamp electrophysiology device. This instrument allows synchronous recording from 384 well (48 at a time). A single whole cell recording is made in each well. Whole cell recording is established by perfusion of the internal compartment with amphotericin B.
The voltage protocol is designed to detect use-dependent block. A 2 Hz train of depolarizations (twenty 25 ms steps to +20 mV). The experimental sequence consists of a control train (pre-compound), incubation of cells with compound for 5 minutes, followed by a second train (post-compound). Use dependent block by compounds is estimated by comparing fractional block of the first pulse in the train to block of the 20th pulse.
Parallel patch clamp electrophysiology is performed using IonWorks HT (Molecular Devices Corp) essentially as described by Kiss and colleagues (Kiss et al. 2003; Assay and Drug Development Technologies, 1:127-135). Briefly, a stable HEK 293 cell line (referred to as CBK) expressing the N-type calcium channel subunits (α1B, α2δ, β3a) and an inwardly rectifying potassium channel (Kir2.3) is used to record barium current through the N-type calcium channel. Cells are grown in T75 culture plates to 60-90% confluence before use. […]

[2] = target: T3, Cav3.2 (T-type channel alpha-1H) (Homo sapiens, UniProt O95180); test: T-type calcium channel voltage-clamp assay, Cav3.2; conditions: read-out: Cav 3.2 IC50
T3 construct: expressed in transfected cells; host or cells: HEK 293
Description: as §1, §2

T3 sequence (O95180 whole entry): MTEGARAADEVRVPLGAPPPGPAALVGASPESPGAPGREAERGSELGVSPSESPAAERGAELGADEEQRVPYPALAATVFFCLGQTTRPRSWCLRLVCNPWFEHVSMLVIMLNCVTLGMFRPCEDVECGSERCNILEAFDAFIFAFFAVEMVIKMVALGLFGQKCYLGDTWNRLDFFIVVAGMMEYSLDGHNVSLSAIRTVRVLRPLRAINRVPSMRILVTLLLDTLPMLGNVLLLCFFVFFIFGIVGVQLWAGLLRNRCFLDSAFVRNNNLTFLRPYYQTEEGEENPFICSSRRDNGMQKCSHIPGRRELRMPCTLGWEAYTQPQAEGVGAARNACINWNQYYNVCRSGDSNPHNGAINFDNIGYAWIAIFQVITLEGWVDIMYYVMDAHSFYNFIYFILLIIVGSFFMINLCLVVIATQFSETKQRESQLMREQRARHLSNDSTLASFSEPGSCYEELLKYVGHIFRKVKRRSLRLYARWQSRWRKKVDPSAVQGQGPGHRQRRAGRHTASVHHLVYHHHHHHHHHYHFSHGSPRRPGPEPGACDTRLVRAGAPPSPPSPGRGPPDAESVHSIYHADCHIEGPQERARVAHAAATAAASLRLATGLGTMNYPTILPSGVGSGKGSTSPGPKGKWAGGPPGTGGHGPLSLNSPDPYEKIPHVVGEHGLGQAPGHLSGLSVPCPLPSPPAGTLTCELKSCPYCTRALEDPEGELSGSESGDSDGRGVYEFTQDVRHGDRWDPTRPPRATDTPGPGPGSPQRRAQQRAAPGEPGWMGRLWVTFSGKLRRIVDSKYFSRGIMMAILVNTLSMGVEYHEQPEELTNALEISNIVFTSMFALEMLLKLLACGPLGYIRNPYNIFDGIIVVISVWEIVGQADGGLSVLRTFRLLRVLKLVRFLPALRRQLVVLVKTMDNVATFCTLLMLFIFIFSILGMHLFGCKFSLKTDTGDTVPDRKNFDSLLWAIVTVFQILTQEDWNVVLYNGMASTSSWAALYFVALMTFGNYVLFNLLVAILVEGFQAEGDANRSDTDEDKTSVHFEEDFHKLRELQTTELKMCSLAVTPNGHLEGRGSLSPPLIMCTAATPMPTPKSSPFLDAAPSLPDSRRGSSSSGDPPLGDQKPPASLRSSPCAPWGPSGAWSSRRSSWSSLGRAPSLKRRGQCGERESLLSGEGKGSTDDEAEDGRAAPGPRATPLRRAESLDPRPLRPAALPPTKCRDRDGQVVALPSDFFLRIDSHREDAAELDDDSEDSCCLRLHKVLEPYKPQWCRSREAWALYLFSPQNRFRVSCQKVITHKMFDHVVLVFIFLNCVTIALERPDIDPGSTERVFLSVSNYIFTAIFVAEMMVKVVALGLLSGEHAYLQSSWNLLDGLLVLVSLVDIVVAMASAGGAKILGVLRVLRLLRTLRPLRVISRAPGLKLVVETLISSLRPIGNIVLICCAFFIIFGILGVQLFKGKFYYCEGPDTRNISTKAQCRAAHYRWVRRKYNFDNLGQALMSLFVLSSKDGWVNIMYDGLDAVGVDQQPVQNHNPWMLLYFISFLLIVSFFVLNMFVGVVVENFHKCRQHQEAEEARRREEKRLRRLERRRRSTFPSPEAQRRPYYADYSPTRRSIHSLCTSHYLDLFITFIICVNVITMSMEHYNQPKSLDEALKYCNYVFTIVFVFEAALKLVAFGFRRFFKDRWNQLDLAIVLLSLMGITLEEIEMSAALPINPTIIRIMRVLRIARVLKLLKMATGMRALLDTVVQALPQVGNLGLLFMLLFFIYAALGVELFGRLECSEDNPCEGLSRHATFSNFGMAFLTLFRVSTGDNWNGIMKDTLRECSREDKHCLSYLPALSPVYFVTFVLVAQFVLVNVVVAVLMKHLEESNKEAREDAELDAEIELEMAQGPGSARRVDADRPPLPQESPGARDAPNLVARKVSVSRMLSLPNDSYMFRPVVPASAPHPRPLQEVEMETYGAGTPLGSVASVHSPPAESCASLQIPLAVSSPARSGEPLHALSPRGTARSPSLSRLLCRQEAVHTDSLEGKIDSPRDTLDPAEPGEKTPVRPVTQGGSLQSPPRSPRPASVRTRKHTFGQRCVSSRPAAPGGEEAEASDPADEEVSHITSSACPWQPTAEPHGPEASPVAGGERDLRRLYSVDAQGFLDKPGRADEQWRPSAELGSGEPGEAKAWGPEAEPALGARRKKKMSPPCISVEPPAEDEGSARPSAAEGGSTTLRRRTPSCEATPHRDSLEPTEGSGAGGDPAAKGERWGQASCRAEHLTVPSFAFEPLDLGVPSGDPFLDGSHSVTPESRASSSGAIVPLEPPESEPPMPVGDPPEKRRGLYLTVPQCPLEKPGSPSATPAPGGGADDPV
T1 sequence (O43497 whole entry): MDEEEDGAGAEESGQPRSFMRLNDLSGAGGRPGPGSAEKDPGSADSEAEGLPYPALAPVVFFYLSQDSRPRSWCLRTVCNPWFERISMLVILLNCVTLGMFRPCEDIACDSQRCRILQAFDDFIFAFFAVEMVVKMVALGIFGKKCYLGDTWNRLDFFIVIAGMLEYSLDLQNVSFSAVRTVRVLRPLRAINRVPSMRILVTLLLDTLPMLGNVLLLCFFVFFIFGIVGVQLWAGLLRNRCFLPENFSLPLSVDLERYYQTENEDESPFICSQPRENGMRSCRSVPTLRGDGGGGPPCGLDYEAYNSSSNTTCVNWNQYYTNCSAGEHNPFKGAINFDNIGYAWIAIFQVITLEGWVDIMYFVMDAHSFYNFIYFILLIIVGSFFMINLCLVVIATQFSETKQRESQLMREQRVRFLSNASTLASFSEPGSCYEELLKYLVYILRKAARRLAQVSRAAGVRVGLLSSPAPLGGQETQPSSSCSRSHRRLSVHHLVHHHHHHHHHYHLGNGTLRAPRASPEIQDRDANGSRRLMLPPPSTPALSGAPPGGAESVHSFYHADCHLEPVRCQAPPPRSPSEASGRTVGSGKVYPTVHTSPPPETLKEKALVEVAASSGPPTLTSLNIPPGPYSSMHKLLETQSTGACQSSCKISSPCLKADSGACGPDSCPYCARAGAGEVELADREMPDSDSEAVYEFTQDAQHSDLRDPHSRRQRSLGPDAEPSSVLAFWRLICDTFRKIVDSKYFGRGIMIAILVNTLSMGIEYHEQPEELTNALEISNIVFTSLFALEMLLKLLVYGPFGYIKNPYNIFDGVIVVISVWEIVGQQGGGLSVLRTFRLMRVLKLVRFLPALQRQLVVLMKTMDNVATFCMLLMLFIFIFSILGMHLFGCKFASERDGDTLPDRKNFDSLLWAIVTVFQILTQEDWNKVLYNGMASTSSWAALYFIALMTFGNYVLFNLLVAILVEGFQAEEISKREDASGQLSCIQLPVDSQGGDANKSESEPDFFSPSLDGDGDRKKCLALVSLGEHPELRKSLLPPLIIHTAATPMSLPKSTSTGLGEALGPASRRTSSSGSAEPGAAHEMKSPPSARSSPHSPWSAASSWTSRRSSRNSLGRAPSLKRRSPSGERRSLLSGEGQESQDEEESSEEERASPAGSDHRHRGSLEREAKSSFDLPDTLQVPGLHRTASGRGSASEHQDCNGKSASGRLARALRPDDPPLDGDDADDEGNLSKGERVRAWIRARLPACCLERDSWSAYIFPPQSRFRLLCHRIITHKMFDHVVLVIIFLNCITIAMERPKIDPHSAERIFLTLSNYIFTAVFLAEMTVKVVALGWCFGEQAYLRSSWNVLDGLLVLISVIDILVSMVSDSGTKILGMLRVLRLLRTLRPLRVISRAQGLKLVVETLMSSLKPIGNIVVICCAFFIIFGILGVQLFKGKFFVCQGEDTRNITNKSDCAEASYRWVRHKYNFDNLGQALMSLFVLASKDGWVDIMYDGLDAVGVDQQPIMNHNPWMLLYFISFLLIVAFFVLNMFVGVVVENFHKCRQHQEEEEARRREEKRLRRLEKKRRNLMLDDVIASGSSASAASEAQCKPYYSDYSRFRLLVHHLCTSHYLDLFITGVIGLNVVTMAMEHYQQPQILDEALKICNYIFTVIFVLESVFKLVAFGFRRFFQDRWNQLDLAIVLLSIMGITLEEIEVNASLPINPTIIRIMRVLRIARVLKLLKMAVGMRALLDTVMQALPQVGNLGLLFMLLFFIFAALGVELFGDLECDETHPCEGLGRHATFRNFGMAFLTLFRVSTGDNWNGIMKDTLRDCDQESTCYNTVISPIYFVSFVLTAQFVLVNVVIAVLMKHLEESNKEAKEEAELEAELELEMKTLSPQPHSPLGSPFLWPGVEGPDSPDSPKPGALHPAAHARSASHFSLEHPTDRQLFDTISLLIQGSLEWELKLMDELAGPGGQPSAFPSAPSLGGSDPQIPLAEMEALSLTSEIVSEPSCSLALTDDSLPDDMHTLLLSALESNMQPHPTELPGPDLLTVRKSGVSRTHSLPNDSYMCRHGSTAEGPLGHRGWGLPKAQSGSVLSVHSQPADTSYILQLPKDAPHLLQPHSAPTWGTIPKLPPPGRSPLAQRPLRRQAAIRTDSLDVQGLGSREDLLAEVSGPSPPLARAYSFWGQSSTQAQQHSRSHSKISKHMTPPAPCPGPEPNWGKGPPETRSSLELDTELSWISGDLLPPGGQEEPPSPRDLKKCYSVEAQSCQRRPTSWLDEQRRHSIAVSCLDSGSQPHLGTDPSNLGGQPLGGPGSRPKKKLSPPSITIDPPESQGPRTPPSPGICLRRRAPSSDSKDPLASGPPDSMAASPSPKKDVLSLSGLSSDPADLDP

Row | SMILES | IC50 [1] | inhibition at 10 µM (Human Cav2.2 channels) | inhibition at 30 µM (Human Cav2.2 channels) | IC50 (Human Cav2.2 channels) | IC50 [2]
1 | Cc1ccc(C(=O)N2CCN(c3cc(C(C)(C)C)cc(C(C)(C)C)c3)CC2)s1 [Compound 28, (4-(3,5-di-tert-butylphenyl)piperazin-1-yl)(5-methylthiophen-2-yl)methanone] | 800 nM | 87% | 101% | 2400 nM | 960 nM
2 | Cc1nc(C(F)(F)F)c(C(=O)N2CCN(c3cc(C(C)(C)C)cc(C(C)(C)C)c3)CC2)s1 [Compound 41, (4-(3,5-di-tert-butylphenyl)piperazin-1-yl)(2-methyl-4-(trifluoromethyl)thiazol-5-yl)methanone] | 1510 nM | 102% | 107% | 830 nM | 1410 nM
3 | Cc1nc(C(=O)N2CCN(c3cc(C(C)(C)C)cc(C(C)(C)C)c3)CC2)c(C(F)(F)F)o1 [Compound 37, (4-(3,5-di-tert-butylphenyl)piperazin-1-yl)(2-methyl-5-(trifluoromethyl)oxazol-4-yl)methanone] | 2040 nM | 94% | 101% | 550 nM | 2290 nM
4 | CCCSc1ncccc1C(=O)N1CCN(c2cc(C(C)(C)C)cc(C(C)(C)C)c2)CC1 [Compound 31, (4-(3,5-di-tert-butylphenyl)piperazin-1-yl)(2-(propylthio)pyridin-3-yl)methanone] | 1250 nM | 99% | 104% | 850 nM | 1590 nM
5 | Cc1nc(C)c(C(=O)N2CCN(c3cc(C(C)(C)C)cc(C(C)(C)C)c3)CC2)s1 [Compound 32, (4-(3,5-di-tert-butylphenyl)piperazin-1-yl)(2,4-dimethylthiazol-5-yl)methanone] | 1090 nM | 98% | 98% | 780 nM | 1150 nM
6 | CC(C)(C)c1cc(N2CCN(C(=O)COc3ccc(F)cc3)CC2)cc(C(C)(C)C)c1 [Compound 13, 1-(4-(3,5-di-tert-butylphenyl)piperazin-1-yl)-2-(4-fluorophenoxy)ethanone] | 600 nM | 97% | 97% | 620 nM | 680 nM
7 | Cc1nc(C(F)(F)F)ccc1C(=O)N1CCN(c2cc(C(C)(C)C)cc(C(C)(C)C)c2)CC1 [Compound 30, (4-(3,5-di-tert-butylphenyl)piperazin-1-yl)(2-methyl-6-(trifluoromethyl)pyridin-3-yl)methanone] | 970 nM | 91% | 100% | 1300 nM | 1150 nM
8 | CC(C)c1cc(C(=O)N2CCN(c3cc(C(C)(C)C)cc(C(C)(C)C)c3)CC2)cs1 [Compound 23, (4-(3,5-di-tert-butylphenyl)piperazin-1-yl)(5-isopropylthiophen-3-yl)methanone] | 800 nM | 90% | 97% | 1400 nM | 870 nM
9 | CC(C)(C)C(=O)Nc1ccncc1C(=O)N1CCN(c2cc(C(C)(C)C)cc(C(C)(C)C)c2)CC1 [Compound 7, N-(3-(4-(3,5-di-tert-butylphenyl)piperazine-1-carbonyl)pyridin-4-yl)pivalamide] | 470 nM | 97% | 96% | 300 nM | 660 nM
10 | CC(C)(C)c1cc(N2CCN(C(=O)c3ccc(OCC(F)(F)F)nc3)CC2)cc(C(C)(C)C)c1 [Compound 47, (4-(3,5-di-tert-butylphenyol)piperazin-1-yl)(6-(2,2,2-trifluoroethoxy)pyridin-3-yl)methanone] | 490 nM | 101% | 104% | 1480 nM | 800 nM
11 | Cc1ccsc1C(=O)N1CCN(c2cc(C(C)(C)C)cc(C(C)(C)C)c2)CC1 [Compound 29, (4-(3,5-di-tert-butylphenyl)piperazin-1-yl)(3-methylthiophen-2-yl)methanone] | 840 nM | 88% | 101% | 2000 nM | 1010 nM
